In US8846904B2, “Water-soluble porphyrin and process for production thereof” (University of Miyazaki, priority 2009, dated 2014):
Read-outs that look alike come from different tables or passages of the source.

Columns and labels:
[1] = Solubility in dioxane (Co), absorption spectrum; format: physicochemical
Description: (§1) 10 mg of the obtained PTPP derivative was dispersed in 0.50 mL of water and allowed to stand for 3 days to prepare a saturated aqueous solution. The supernatant of the aqueous solution was collected and diluted with methanol. Thereafter, the absorption spectrum was measured and the solubility in water (Cw) was calculated using the molar absorption coefficient of the PTPP derivative in methanol. In a similar manner to the above, the solubility in dioxane (Co) was also calculated.

[2] = Solubility in water (Cw), saturated aqueous solution, absorption spectrum; format: physicochemical
Description: as §1

[3] = Quantum yield of 1O2 production, near infrared emission at 1,270 nm; format: physicochemical; settings: aqueous PTPP derivative solution (20 μM), laser 558 nm, relative to methylene blue
Description: When the photosensitizer “Photofrin” that has been practically used in PDT treatment is used, the quantum yield of ^1O2 is 0.53 (J. Photochem. Photobiol. B, 92 (2008), 59-65). In contrast, when the PTPP derivatives prepared in Examples 2, 3, and 4 were used, the quantum yields of ^1O2 were 0.62, 0.69, and 0.73, respectively. This explains that the water-soluble porphyrins of the present invention have high photoexcitation efficiency and can thus be suitably used for PDT. The quantum yields of the ^1O2 production were determined by directly measuring the near infrared emission near 1,270 nm obtained by deactivation of the produced ^1O2.
Specifically, an aqueous PTPP derivative solution (20 μM) was irradiated with a laser beam of 558 nm to excite the PTPP derivative, and the emission spectrum of the produced ^1O2 was measured. The quantum yield of the ^1O2 production was calculated by comparing the emission intensity at 1,270 nm obtained with respect to the aqueous PTPP derivative solution with the emission intensity at 1,270 nm obtained in the same manner as above with respect to methylene blue (quantum yield: 0.52).

[4] = test system: yeast (Saccharomyces cerevisiae); assay: Biocompatibility: concentration of PTPP derivative adsorbed on yeast cells (Cad), microscope absorption spectrophotometry; format: cell-based; settings: 10 μM of PTPP derivative added to a yeast solution (1.0×10^4 cell/mL); Nd = below the detection limit
Description: Subsequently, the biocompatibility of this PTPP derivative was assessed in the following manner. An aqueous solution of this PTPP derivative (0.5 mL, 50 μm) was added to the cell suspension (1.0 mL; ca. 2.5×10^4 cell/mL) of yeast, and then an aqueous solution of agar (1 wt %; 1.0 mL) was added. A portion of the prepared aqueous solution containing the PTPP derivative (10 μm), yeast (Saccharomyces cerevisiae; ca. 1.0×10^4 cell/mL) and agar (0.4 wt %) was placed on a space (1 cm×1 cm) surrounded by a silicone spacer (thickness 50 μm) put on a glass slide, covered with a cover glass. The glass slide was set on the stage of an optical microscope. Thereafter, appropriate bacterial cells were positioned in the center of the field of view, and the Q-band absorption spectrum of the PTPP derivative near 560 nm was measured. Then, the concentration (Cad) of the PTPP derivative adsorbed on the bacterial cells was calculated from absorption spectrophotometry based on the Lambert-Beer law.

[5] = cited from earlier work
[6] = Partition from aqueous phase to water-immiscible organic solvent (octanol or chloroform); format: physicochemical; settings: octanol or chloroform added to the aqueous solution and stirred; derivative promptly moved to the organic phase
Description: A water-immiscible organic solvent, such as octanol or chloroform, was added to the aqueous solution of the PTPP derivative (Cw=17.3 mM, Co=0.245 mM) and stirred. This caused the PTPP derivative dissolved in the aqueous phase to promptly move to the organic phase.

[7] = saturated aqueous solution, allowed to stand for 3 days

Row | Compound | Solubility Co (solubility in dioxane) ([1]; solvent dioxane) | Solubility Cw (solubility in water) [2, 7] | quantum yield of 1O2 [3] | Cad (concentration of PTPP derivative adsorbed on bacterial cell) [4] | further results
1 | CCCCOCCOCCO[P-]123(OCCOCCOCCCC)n4c5ccc4C(c4ccccc4)=C4C=CC(=[N+]41)C(c1ccccc1)=c1ccc(n12)=C(c1ccccc1)C1=[N+]3C(=C5c2ccccc2)C=C1.Cl [Example 4] | 293 µM | 5380 µM | 0.73 | 74.6 mM | –
2 | CCOCCOCCO[P-]123(OCCOCCOCC)n4c5ccc4C(c4ccccc4)=C4C=CC(=[N+]41)C(c1ccccc1)=c1ccc(n12)=C(c1ccccc1)C1=[N+]3C(=C5c2ccccc2)C=C1.Cl [Example 3] | 169 µM | 13000 µM | 0.69 | 27.5 mM | –
3 | CCCCCCCCCCCCOCCOCCOCCOCCOCCOCCOCCOCCOCCO[P-]123(OCCOCCOCCOCCOCCOCCOCCOCCOCCOCCCCCCCCCCCC)n4c5ccc4C(c4ccccc4)=C4C=CC(=[N+]41)C(c1ccccc1)=c1ccc(n12)=C(c1ccccc1)C1=[N+]3C(=C5c2ccccc2)C=C1.Cl [Example 7] | ≧25 mM | 14460 µM | – | – | –
4 | Photofrin | – | – | – | – | quantum yield of 1O2 ([5]; Photofrin, from J. Photochem. Photobiol. B, 92 (2008), 59-65): 0.53
5 | COCCOCCOCCO[P-]123(OCCOCCOCCOC)n4c5ccc4C(c4ccccc4)=C4C=CC(=[N+]41)C(c1ccccc1)=c1ccc(n12)=C(c1ccccc1)C1=[N+]3C(=C5c2ccccc2)C=C1.Cl [Example 1] | 245 µM | 17300 µM | – | – | partition to the organic phase [6]: high partition coefficient to the organic phase
6 | CCCCCCOCCO[P-]123(OCCOCCCCCC)n4c5ccc4C(c4ccccc4)=C4C=CC(=[N+]41)C(c1ccccc1)=c1ccc(n12)=C(c1ccccc1)C1=[N+]3C(=C5c2ccccc2)C=C1.Cl [Example 6] | – | – | – | 142 mM | Solubility Co (solubility in dioxane) [1]: 242 µM; Solubility Cw (solubility in water) [2]: 1110 µM
7 | CCCCCCOCCOCCO[P-]123(OCCOCCOCCCCCC)n4c5ccc4C(c4ccccc4)=C4C=CC(=[N+]41)C(c1ccccc1)=c1ccc(n12)=C(c1ccccc1)C1=[N+]3C(=C5c2ccccc2)C=C1.Cl [Example 5] | 244 µM | 2070 µM | – | 146 mM | –
8 | CCCCCCCCCCCCCCCCCCOCCOCCOCCOCCO[P-]123(OCCOCCOCCOCCOCCCCCCCCCCCCCCCCCC)n4c5ccc4C(c4ccccc4)=C4C=CC(=[N+]41)C(c1ccccc1)=c1ccc(n12)=C(c1ccccc1)C1=[N+]3C(=C5c2ccccc2)C=C1.Cl [Example 8] | ≧25 mM | 7960 µM | – | – | –
9 | COCCOCCO[P-]123(OCCOCCOC)n4c5ccc4C(c4ccccc4)=C4C=CC(=[N+]41)C(c1ccccc1)=c1ccc(n12)=C(c1ccccc1)C1=[N+]3C(=C5c2ccccc2)C=C1.Cl [Example 2] | 140 µM | 13900 µM | 0.62 | 17.8 mM | –
10 | CN(C)c1ccc2nc3ccc(=[N+](C)C)cc-3sc2c1 [methylene blue] | – | – | – | – | quantum yield of 1O2 ([5]; methylene blue reference standard value): 0.52
